Like-named read-outs stand apart in the source and are kept apart here.
Tests used:
bromelain = bromelain (Ananas comosus, UniProt P14518); details: for initial velocity, Mean / initial velocity, test 1 / initial velocity, test 2 / Mean (% contr.): 1% PBO; for Mean (% contr.): % of control
Description: The assay was carried out as described in Heinrikson & Kezdy, 1976, Methods in Enzymol. 45, p. 740. The conditions are summarised briefly herein: 50 μg of bromelain was mixed with variable quantities of Na CBZ-L-lysine p-nitrophenyl ester substrate in 3 ml of 10 mM acetate buffer pH 4.6 containing KCl (0.1 M) and L-cystein (1 mM).

[1] = tested on: carboxypeptidase activity in cotton sprouts; details: for absorbance at 280 nm, Exp. n° 1, PBO Treated Cotton Sprouts / absorbance at 280 nm, Exp. n° 2, PBO Treated Cotton Sprouts / absorbance at 280 nm, Mean, PBO Treated Cotton Sprouts / Carboxypeptidase Activity (U), PBO Treated Cotton Sprouts: pH 6.5; for absorbance at 280 nm, Exp. n° 1, PBO Treated Cotton Sprouts / absorbance at 280 nm, Exp. n° 2, PBO Treated Cotton Sprouts / absorbance at 280 nm, Mean, PBO Treated Cotton Sprouts / % difference of carboxypeptidase activity, treated vs untreated / Δ U (carboxypeptidase activity, untreated vs PBO treated) / Carboxypeptidase Activity (U), PBO Treated Cotton Sprouts: 4th day of germination, PBO 1% w/v
Description: The extent of proteolytic activity in cotton sprouts was measured at 30′, 60′, 90′ and […] after suspension of the acetonic powder in aqueous buffer at pH 6.5 by determining the absorbance at 280 nm in a quartz cuvette, after protein precipitation with TCA and removal by centrifugation.
Each series of analysis was performed in duplicate. The comparison between the values of carboxypeptidase activity of treated and untreated samples was done using the average value of each series of analysis.
The basic idea was to “freeze” the physiologic protein hydrolysis enzymatic activity and to re-establish the process simply solubilizing the proteolytic enzymatic system in suitable buffers, which were 0.1 M phosphate pH 6.5 and 0.1 M tris-HCl pH 7.7, for evaluating both the carboxypeptidase and the endopeptidase activities according to the method described by Hile et al. 1972; Funkhouser et al. 1980.
Cotton seeds (cv. Carmela) were obtained from “Semillas Battle”, Barcelona (E).
The seeds were previously rinsed in tap water and then imbibed with aeration in distilled water over night (Funkhouser, E. A. et al., Z. Pflanzenphysiol., 1980, 100, 319-324).
The plastic boxes containing seeds were covered by a plastic film and placed in a germinator in the dark for 4 days at 30° C. as described in Hile, J. N. and Dure, L. S. J. Biol. Chem., 1972, 247: 5034-5040.
The cotton sprouts of 4 days were collected and frozen in liquid nitrogen and freeze dried (Hile et al. 1972). After this process, the material was crushed in a pestle and freed from fibrous material and settled up to obtain a pretty homogeneous meal of about 0.5 mesh.
The meals were defatted using n-hexane (1:10 w/v) at room temperature and then treated with acetone at −20° C. to remove pigments and polyphenolic compounds, in this case mainly gossypol. The powders obtained were stored in a dry box at room temperature.
The acetonic powder (30 mg) was suspended in buffer (4 ml) and incubated at 37° C. for 30, 60, 90, 120 minutes. The proteolysis was stopped adding 1 ml of 12% trichloroacetic acid. In this case, the buffer used was 0.1 M phosphate pH 6.5 (Hile et al. 1972). The control was a suspension of the same sample prepared in the same way but, in this case, it was immediately deactivated, adding 1 ml of trichloroacetic acid. The trials with treated and untreated samples were carried out at the same time.
Proteins were precipitated with trichloroacetic acid and then removed by filtration, before with Whatman paper n. 4 and then by micro-filtration (Orange Scientific Braine I'Alleud, Belgium (Ø0.2 μm)). Finally, the hydrolyzed protein samples were analyzed as clear solutions by determining the absorbance at 280 nm in a quartz cuvette.
Each series of analysis was performed twice. The comparison between the values of carboxypeptidase activity of treated and untreated samples was done using the average value of each series of analysis.

[2] = PBO 0.334 % (w/w), substrate 240 μM
[3] = PBO 0.5 % (w/w), substrate 240 μM
[4] = PBO 0.667 % (w/w), substrate 240 μM
[5] = PBO 1 % (w/w), substrate 240 μM
[6] = PBO 1.334 % (w/w), substrate 240 μM
[7] = PBO 1.667 % (w/w), substrate 240 μM
[8] = Time 0 (immediately deactivated)

bromelain, sequence (P14518 whole entry): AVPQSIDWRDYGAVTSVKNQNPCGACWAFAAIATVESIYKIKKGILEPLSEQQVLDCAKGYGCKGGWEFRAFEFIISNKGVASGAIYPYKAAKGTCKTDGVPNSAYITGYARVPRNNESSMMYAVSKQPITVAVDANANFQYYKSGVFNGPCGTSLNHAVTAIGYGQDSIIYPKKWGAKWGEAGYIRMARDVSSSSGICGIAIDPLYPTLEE

In the case of CCCCOCCOCCOCc1cc2c(cc1CCC)OCO2 [PBO, 5-[[2-(2-Butoxyethoxy)ethoxy]methyl]-6-propyl-1,3-benzodioxole], the “initial velocity, Mean” value (bromelain; substrate 24 μM) is reported as 0.0136 absorbance at 340 nm/min, the “initial velocity, test 1” value (bromelain; substrate 24 μM) is reported as 0.0141 absorbance at 340 nm/min and the “initial velocity, test 2” value (bromelain; substrate 24 μM) is reported as 0.0130 absorbance at 340 nm/min. The “Mean (% contr.)” value (bromelain; substrate 24 μM) was 68%, the “initial velocity, Mean” value (bromelain; substrate 48 μM) was 0.0270 absorbance at 340 nm/min and the “initial velocity, test 1” value (bromelain; substrate 48 μM) was 0.0243 absorbance at 340 nm/min. The “initial velocity, test 2” value (bromelain; substrate 48 μM) was 0.0297 absorbance at 340 nm/min, the “Mean (% contr.)” value (bromelain; substrate 48 μM) was 68% and the “initial velocity, Mean” value (bromelain; substrate 96 μM) was 0.0490 absorbance at 340 nm/min. For the same compound, the “initial velocity, test 1” value (bromelain; substrate 96 μM) was 0.0518 absorbance at 340 nm/min, the “initial velocity, test 2” value (bromelain; substrate 96 μM) was 0.0461 absorbance at 340 nm/min and the “Mean (% contr.)” value (bromelain; substrate 96 μM) was 78%. The “Initial velocity (% of control), Exp. 1” value (bromelain; [2]) was 95%, the “Initial velocity (% of control), Exp. 2” value (bromelain; [2]) was 98% and the “Initial velocity, Exp. 1” value (bromelain; [2]) was 0.1306 absorbance at 340 nm/min. For the same compound, the “Initial velocity, Exp. 2” value (bromelain; [2]) was 0.1197 absorbance at 340 nm/min, the “Initial velocity, Exp. 3” value (bromelain; [2]) was 0.1029 absorbance at 340 nm/min and the “Initial velocity (% of control), Exp. 1” value (bromelain; [3]) was 91%. The “Initial velocity, Exp. 1” value (bromelain; [3]) was 0.1252 absorbance at 340 nm/min, the “Initial velocity (% of control), Exp. 2” value (bromelain; [4]) was 88% and the “Initial velocity, Exp. 2” value (bromelain; [4]) was 0.1079 absorbance at 340 nm/min. For the same compound, the “Initial velocity (% of control), Exp. 1” value (bromelain; [5]) was 86%, the “Initial velocity (% of control), Exp. 2” value (bromelain; [5]) was 86% and the “Initial velocity, Exp. 1” value (bromelain; [5]) was 0.1194 absorbance at 340 nm/min. For the same compound, the “Initial velocity, Exp. 2” value (bromelain; [5]) was 0.1057 absorbance at 340 nm/min, the “Initial velocity (% of control), Exp. 2” value (bromelain; [6]) was 84% and the “Initial velocity, Exp. 2” value (bromelain; [6]) was 0.1029 absorbance at 340 nm/min. The “Initial velocity (% of control), Exp. 2” value (bromelain; [7]) was 76%, the “Initial velocity, Exp. 2” value (bromelain; [7]) was 0.0927 absorbance at 340 nm/min and the “PBO concentration with inhibitory activity on bromelain” value (bromelain; substrate 240 μM, concentration dependent) was “higher than 0.5%”. The “proteolytic activity related to carboxypeptidase in treated samples” value ([1]; FIG. 4, treated vs untreated cotton sprouts) was “lower than in the untreated ones”, the “absorbance at 280 nm, Exp. n° 1, PBO Treated Cotton Sprouts” value [1, 8] was 0.632 and the “absorbance at 280 nm, Exp. n° 2, PBO Treated Cotton Sprouts” value [1, 8] was 0.729. For the same compound, the “absorbance at 280 nm, Mean, PBO Treated Cotton Sprouts” value (“absorbance at 280 nm, Mean” for short) [1, 8] was 0.68, the “% difference of carboxypeptidase activity, treated vs untreated” value (“% difference” for short) ([1]; Time 30′) was 55.7% and the “Δ U (carboxypeptidase activity, untreated vs PBO treated)” value ([1]; Time 30′) was 0.083 U. The “Carboxypeptidase Activity (U), PBO Treated Cotton Sprouts” value (shortened to “Carboxypeptidase Activity (U)”) ([1]; Time 30′) was 0.066 U, the “absorbance at 280 nm, Exp. n° 1, PBO Treated Cotton Sprouts” value ([1]; Time 30′) was 0.730 and the “absorbance at 280 nm, Exp. n° 2, PBO Treated Cotton Sprouts” value ([1]; Time 30′) was 0.763. The “absorbance at 280 nm, Mean” value ([1]; Time 30′) was 0.746, the “% difference” value ([1]; Time 60′) was 39.3% and the “Δ U (carboxypeptidase activity, untreated vs PBO treated)” value ([1]; Time 60′) was 0.081 U. For the same compound, the “Carboxypeptidase Activity (U)” value ([1]; Time 60′) was 0.125 U, the “absorbance at 280 nm, Exp. n° 1, PBO Treated Cotton Sprouts” value ([1]; Time 60′) was 0.752 and the “absorbance at 280 nm, Exp. n° 2, PBO Treated Cotton Sprouts” value ([1]; Time 60′) was 0.858. The “absorbance at 280 nm, Mean” value ([1]; Time 60′) was 0.805, the “% difference” value ([1]; Time 90′) was 43.5% and the “Δ U (carboxypeptidase activity, untreated vs PBO treated)” value ([1]; Time 90′) was 0.087 U. For the same compound, the “Carboxypeptidase Activity (U)” value ([1]; Time 90′) was 0.113 U, the “absorbance at 280 nm, Exp. n° 1, PBO Treated Cotton Sprouts” value ([1]; Time 90′) was 0.880 and the “absorbance at 280 nm, Exp. n° 2, PBO Treated Cotton Sprouts” value ([1]; Time 90′) was 0.838. For the same compound, the “absorbance at 280 nm, Mean” value ([1]; Time 90′) was 0.859, the “% difference” value ([1]; Time 120′) was 61.0% and the “Δ U (carboxypeptidase activity, untreated vs PBO treated)” value ([1]; Time 120′) was 0.158 U. For the same compound, the “Carboxypeptidase Activity (U)” value ([1]; Time 120′) was 0.101 U, the “absorbance at 280 nm, Exp. n° 1, PBO Treated Cotton Sprouts” value ([1]; Time 120′) was 0.775 and the “absorbance at 280 nm, Exp. n° 2, PBO Treated Cotton Sprouts” value ([1]; Time 120′) was 0.787. For the same compound, the “absorbance at 280 nm, Mean” value ([1]; Time 120′) was 0.781.

Source: patent US8017557B2, “Benzodioxole derivatives as modulators of proteolytic activity in plants” (Endura S.p.A., priority 2002, dated 2011)
